Values joined by “and” are separate entries in the source; they are usually repeats but may differ in a detail not shown here. Equal entries are not always repeated.
Tests used:
human CB1 [1] = molecular target: T1, human CB1 (Homo sapiens, UniProt P21554); experiment: NanoBiT CB1 β-arrestin 2 recruitment assay; assay type: cell-based; design: expressed in transfected cells; conditions: for Efficacy (Emax) Mean Diff: CP55,940 as reference
Target sequence in this assay (P21554 whole entry): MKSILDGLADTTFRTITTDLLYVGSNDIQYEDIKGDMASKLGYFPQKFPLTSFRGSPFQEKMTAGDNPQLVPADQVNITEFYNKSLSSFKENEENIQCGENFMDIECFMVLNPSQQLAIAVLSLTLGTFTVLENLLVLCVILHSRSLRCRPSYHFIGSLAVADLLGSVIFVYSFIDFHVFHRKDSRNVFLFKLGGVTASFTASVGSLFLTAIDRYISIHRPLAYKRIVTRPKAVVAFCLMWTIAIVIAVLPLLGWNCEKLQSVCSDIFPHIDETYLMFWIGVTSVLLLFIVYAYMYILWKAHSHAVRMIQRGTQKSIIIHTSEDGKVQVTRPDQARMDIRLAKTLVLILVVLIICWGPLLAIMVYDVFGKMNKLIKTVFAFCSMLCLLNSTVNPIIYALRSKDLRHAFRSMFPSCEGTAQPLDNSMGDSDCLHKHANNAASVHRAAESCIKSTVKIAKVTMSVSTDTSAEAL
Target sequence in this assay (P32121 whole entry partner): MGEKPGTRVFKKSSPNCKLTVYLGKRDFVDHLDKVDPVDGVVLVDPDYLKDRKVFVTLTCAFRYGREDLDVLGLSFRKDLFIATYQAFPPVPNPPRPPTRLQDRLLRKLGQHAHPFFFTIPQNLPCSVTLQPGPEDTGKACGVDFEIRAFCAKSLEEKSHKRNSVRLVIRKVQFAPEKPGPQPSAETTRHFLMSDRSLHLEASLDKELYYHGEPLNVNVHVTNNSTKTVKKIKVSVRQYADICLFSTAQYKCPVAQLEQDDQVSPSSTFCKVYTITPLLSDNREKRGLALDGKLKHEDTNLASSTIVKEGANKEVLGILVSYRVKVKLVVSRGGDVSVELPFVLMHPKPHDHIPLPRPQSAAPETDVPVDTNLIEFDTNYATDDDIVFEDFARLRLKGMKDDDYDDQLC

human CB1 [2] = molecular target: T1, human CB1; experiment: AequoScreen CB1 intracellular Ca2+ release assay; assay type: cell-based; design: host or cells: CHO-K1 (AequoZen recombinant cell line)
Target sequence in this assay (P21554 whole entry): as the sequence (P21554 whole entry) above

[3] = tested on: paclitaxel-induced peripheral neuropathy; design: method as in one study (reference not given); conditions: rats; ref one study (reference not given); cited from earlier work
[4] = vs 5% MDMB-4en-PINACA, only concentration of final product in mixture
[5] = vs 5% MDMB-4en-PINACA, total concentration of SCRAs in mixture
[6] = vs 25% MDMB-4en-PINACA, only concentration of final product in mixture
[7] = vs 25% MDMB-4en-PINACA, total concentration of SCRAs in mixture
[8] = vs 50% MDMB-4en-PINACA, only concentration of final product in mixture
[9] = vs 50% MDMB-4en-PINACA, total concentration of SCRAs in mixture
[10] = vs 75% MDMB-4en-PINACA, only concentration of final product in mixture
[11] = vs 75% MDMB-4en-PINACA, total concentration of SCRAs in mixture
[12] = Potency (EC50, nM) β-arrestin 2, Table 4, reference standards and precursor:final SCRA mixtures, total (combined) SCRA concentration, n ≥ 3
[13] = Potency (EC50, nM) β-arrestin 2, Table 5, Ref (reference standard)
[14] = Table 4, reference standards and mixtures, total SCRA concentration
[15] = Table 5, Ref (reference standard)
[16] = Potency (EC50, nM) AequoScreen, Table 4, reference standards and mixtures, total SCRA concentration, n ≥ 3
[17] = Potency (EC50, nM) AequoScreen, Table 5, Ref (reference standard)
[18] = Table 5, Ref (reference standard), read-out: Potency (EC50, nM) β-arrestin 2
[19] = Table 5, Ref (reference standard), read-out: Potency (EC50, nM) AequoScreen

CCCCn1nc(C(=O)N[C@H](C(N)=O)C(C)(C)C)c2ccccc21 [100% ADB-BUTINACA]
Efficacy (Emax) Mean Diff (human CB1 [1]; vs 5% ADB-BUTINACA, only concentration of final product in mixture): 76.63 | Efficacy (Emax) Mean Diff (human CB1 [1]; vs 5% ADB-BUTINACA, total concentration of SCRAs in mixture): 98.60 | Efficacy (Emax) Mean Diff (human CB1 [1]; vs 25% ADB-BUTINACA, only concentration of final product in mixture): 52.66 | Efficacy (Emax) Mean Diff (human CB1 [1]; vs 25% ADB-BUTINACA, total concentration of SCRAs in mixture): 66.35 | Efficacy (Emax) Mean Diff (human CB1 [1]; vs 50% ADB-BUTINACA, only concentration of final product in mixture): 144.9 | Efficacy (Emax) Mean Diff (human CB1 [1]; vs 50% ADB-BUTINACA, total concentration of SCRAs in mixture): 155.6 | Efficacy (Emax) Mean Diff (human CB1 [1]; vs 75% ADB-BUTINACA, only concentration of final product in mixture): 60.28 | Efficacy (Emax) Mean Diff (human CB1 [1]; vs 75% ADB-BUTINACA, total concentration of SCRAs in mixture): 70.25

C=CCCCn1nc(C(=O)N[C@H](C(=O)OC)C(C)(C)C)c2ccccc21 [100% MDMB-4en-PINACA]
Efficacy (Emax) Mean Diff (human CB1 [1]; [4]): -14.08 | Efficacy (Emax) Mean Diff (human CB1 [1]; [5]): -3.010 | Efficacy (Emax) Mean Diff (human CB1 [1]; [6]): -32.68 | Efficacy (Emax) Mean Diff (human CB1 [1]; [7]): -24.05 | Efficacy (Emax) Mean Diff (human CB1 [1]; [8]): -21.46 | Efficacy (Emax) Mean Diff (human CB1 [1]; [9]): -9.133 | Efficacy (Emax) Mean Diff (human CB1 [1]; [10]): 14.76 | Efficacy (Emax) Mean Diff (human CB1 [1]; [11]): 26.09

COC(=O)[C@@H](NC(=O)c1n[nH]c2ccccc12)C(C)(C)C [100% MDMB-INACA]
Efficacy (Emax) Mean Diff (human CB1 [1]; [4]): 550.8 | Efficacy (Emax) Mean Diff (human CB1 [1]; [5]): 539.7 | Efficacy (Emax) Mean Diff (human CB1 [1]; [6]): 569.4 | Efficacy (Emax) Mean Diff (human CB1 [1]; [7]): 560.7 | Efficacy (Emax) Mean Diff (human CB1 [1]; [8]): 558.2 | Efficacy (Emax) Mean Diff (human CB1 [1]; [9]): 545.8 | Efficacy (Emax) Mean Diff (human CB1 [1]; [10]): 521.9 | Efficacy (Emax) Mean Diff (human CB1 [1]; [11]): 510.6 | Efficacy (Emax) Mean Diff (human CB1 [1]; vs 100% MDMB-4en-PINACA, only concentration of final product in mixture): 536.7 | Efficacy (Emax) Mean Diff (human CB1 [1]; vs 100% MDMB-4en-PINACA, total concentration of SCRAs in mixture): 536.7 | Efficacy (Emax) Mean Diff (human CB1 [2]; vs 5% MDMB-4en-PINACA, only concentration of final product in mixture, JWH-018 as reference): 2.037 | Efficacy (Emax) Mean Diff (human CB1 [2]; vs 5% MDMB-4en-PINACA, total concentration of SCRAs in mixture, JWH-018 as reference): 6.744 | Efficacy (Emax) Mean Diff (human CB1 [2]; vs 25% MDMB-4en-PINACA, only concentration of final product in mixture, JWH-018 as reference): -0.07601 | Efficacy (Emax) Mean Diff (human CB1 [2]; vs 25% MDMB-4en-PINACA, total concentration of SCRAs in mixture, JWH-018 as reference): 2.036 | Efficacy (Emax) Mean Diff (human CB1 [2]; vs 50% MDMB-4en-PINACA, only concentration of final product in mixture, JWH-018 as reference): 9.030 | Efficacy (Emax) Mean Diff (human CB1 [2]; vs 50% MDMB-4en-PINACA, total concentration of SCRAs in mixture, JWH-018 as reference): -0.07656 | Efficacy (Emax) Mean Diff (human CB1 [2]; vs 75% MDMB-4en-PINACA, only concentration of final product in mixture, JWH-018 as reference): 6.745 | Efficacy (Emax) Mean Diff (human CB1 [2]; vs 75% MDMB-4en-PINACA, total concentration of SCRAs in mixture, JWH-018 as reference): 9.029 | Efficacy (Emax) Mean Diff (human CB1 [2]; vs 100% MDMB-4en-PINACA, only concentration of final product in mixture, JWH-018 as reference): 8.229 | Efficacy (Emax) Mean Diff (human CB1 [2]; vs 100% MDMB-4en-PINACA, total concentration of SCRAs in mixture, JWH-018 as reference): 8.229

CCCCn1nc(C(=O)NC(C(N)=O)C(C)(C)C)c2ccccc21 (stereo not shown) [ADB-BUTINACA]
EC50 (human CB1 [1]; [12]): 6.7 nM and 6.73 nM | EC50 (human CB1 [1]; [13]): 5.65 nM | Efficacy (% of CP55,940) Emax β-arrestin 2 (human CB1 [1]; [14]): 1282 % of CP55,940 and 1280 % of CP55,940 | Efficacy (% of CP55,940) Emax β-arrestin 2 (human CB1 [1]; [15]): 1330 % of CP55,940 | EC50 (human CB1 [2]; [16]): 5.6 nM and 5.64 nM | EC50 (human CB1 [2]; [17]): 7.27 nM | Efficacy (% of JWH-018) Emax AequoScreen (human CB1 [2]; [14]): 105 % of JWH-018 | Efficacy (% of JWH-018) Emax AequoScreen (human CB1 [2]; [15]): 111 % of JWH-018

CC(C)(C)C(NC(=O)c1n[nH]c2ccccc12)C(N)=O (stereo not shown) [ADB-INACA]
Analgesic effects on paclitaxel-induced peripheral neuropathy [3]: analgesic effects

CCCCCn1cc(C(=O)c2cccc3ccccc23)c2ccccc21 [JWH-018, reference compound]
Efficacy (% of CP55,940) Emax β-arrestin 2 (human CB1 [1]; [14]): 335 % of CP55,940 | EC50 (human CB1 [1]; Table 4, reference standards and precursor:final SCRA mixtures, total (combined) SCRA concentration, n ≥ 3, read-out: Potency (EC50, nM) β-arrestin 2): 9.55 nM | Efficacy (% of CP55,940) Emax β-arrestin 2 (human CB1 [1]; [15]): 352 % of CP55,940 | EC50 (human CB1 [1]; [18]): 11 nM | Efficacy (% of JWH-018) Emax AequoScreen (human CB1 [2]; [14]): 97.6 % of JWH-018 | EC50 (human CB1 [2]; Table 4, reference standards and mixtures, total SCRA concentration, n ≥ 3, read-out: Potency (EC50, nM) AequoScreen): 5.14 nM | Efficacy (% of JWH-018) Emax AequoScreen (human CB1 [2]; [15]): 99.8 % of JWH-018 | EC50 (human CB1 [2]; [19]): 13.5 nM

C=CCCCn1nc(C(=O)NC(C(=O)OC)C(C)(C)C)c2ccccc21 (stereo not shown) [MDMB-4en-PINACA, methyl 3,3-dimethyl-2-(1-(pent-4-en-1-yl)-1H-indazole-3-carboxamido)butanoate]
EC50 (human CB1 [1]; [12]): 1.8 nM | EC50 (human CB1 [1]; [13]): 1.8 nM | Efficacy (% of CP55,940) Emax β-arrestin 2 (human CB1 [1]; [14]): 1088 % of CP55,940 and 1090 % of CP55,940 | Efficacy (% of CP55,940) Emax β-arrestin 2 (human CB1 [1]; [15]): 1090 % of CP55,940 | EC50 (human CB1 [2]; [16]): 1.2 nM and 1.17 nM | EC50 (human CB1 [2]; [17]): 1.89 nM | Efficacy (% of JWH-018) Emax AequoScreen (human CB1 [2]; [14]): 104 % of JWH-018 | Efficacy (% of JWH-018) Emax AequoScreen (human CB1 [2]; [15]): 109 % of JWH-018

COC(=O)[C@@H](NC(=O)c1n[nH]c2ccccc12)C(C)(C)C [MDMB-INACA (ref)]
Efficacy (Emax) Mean Diff (human CB1 [1]; vs MDMB-INACA (seizure)): -144.0 | Efficacy (Emax) Mean Diff (human CB1 [2]; vs MDMB-INACA (seizure), CP55,940 as reference): 1.797

COC(=O)C(NC(=O)c1n[nH]c2ccccc12)C(C)(C)C (stereo not shown) [MDMB-INACA]
Analgesic effects on paclitaxel-induced peripheral neuropathy [3]: analgesic effects | Efficacy (% of CP55,940) Emax β-arrestin 2 (human CB1 [1]; [15]): 294 % of CP55,940 | EC50 (human CB1 [1]; [18]): 2400 nM | Efficacy (% of CP55,940) Emax β-arrestin 2 (human CB1 [1]; Table 5, Seizure (precursor seized in Switzerland)): 438 % of CP55,940 | EC50 (human CB1 [1]; Table 5, Seizure (precursor seized in Switzerland), read-out: Potency (EC50, nM) β-arrestin 2): 2190 nM | EC50 (human CB1 [2]; [19]): 11200 nM | EC50 (human CB1 [2]; Table 5, Seizure (precursor seized in Switzerland), read-out: Potency (EC50, nM) AequoScreen): 7610 nM

Reference: article PMC12408681, “Tail-less precursors in synthetic cannabinoid production: investigating a clandestine laboratory, seized samples, and CB1 activity” (Archives of Toxicology, 2025)
